Measurements taken from patent US10640514B2, “Polymorph of DPPIV inhibitor maleate and preparation method therefor” (SHANGHAI INSTITUTE OF MATERIA MEDICA, CHINESE ACADEMY OF …, priority 2016, dated 2020).

Key:
[1] = molecular target: T1, DPP IV (Rattus norvegicus, UniProt P14740); assay: Inhibition of DPP IV activity in normal rat plasma; type: in vivo
T1 construct: from tissue; host or cells: normal rat plasma

[2] = tested on: normal ICR mice; assay: Oral glucose tolerance in normal ICR mice; type: in vivo
[3] = tested on: db/db mice; assay: Fasting blood glucose of gene-deficient db/db mice, chronic administration; type: in vivo
[4] = Pharmacokinetics in rats; type: in vivo
[5] = tested on: ob/ob mice; assay: Fasting blood glucose of ob/ob mice, chronic administration; type: in vivo
[6] = Pharmacokinetics in dogs; type: in vivo
[7] = molecular target: DPP IV (Homo sapiens, UniProt P27487); assay: DPP IV inhibitory activity and selectivity in vitro; type: biochemical
DPP IV (Homo sapiens, UniProt P27487), sequence (P27487 whole entry, species assumed): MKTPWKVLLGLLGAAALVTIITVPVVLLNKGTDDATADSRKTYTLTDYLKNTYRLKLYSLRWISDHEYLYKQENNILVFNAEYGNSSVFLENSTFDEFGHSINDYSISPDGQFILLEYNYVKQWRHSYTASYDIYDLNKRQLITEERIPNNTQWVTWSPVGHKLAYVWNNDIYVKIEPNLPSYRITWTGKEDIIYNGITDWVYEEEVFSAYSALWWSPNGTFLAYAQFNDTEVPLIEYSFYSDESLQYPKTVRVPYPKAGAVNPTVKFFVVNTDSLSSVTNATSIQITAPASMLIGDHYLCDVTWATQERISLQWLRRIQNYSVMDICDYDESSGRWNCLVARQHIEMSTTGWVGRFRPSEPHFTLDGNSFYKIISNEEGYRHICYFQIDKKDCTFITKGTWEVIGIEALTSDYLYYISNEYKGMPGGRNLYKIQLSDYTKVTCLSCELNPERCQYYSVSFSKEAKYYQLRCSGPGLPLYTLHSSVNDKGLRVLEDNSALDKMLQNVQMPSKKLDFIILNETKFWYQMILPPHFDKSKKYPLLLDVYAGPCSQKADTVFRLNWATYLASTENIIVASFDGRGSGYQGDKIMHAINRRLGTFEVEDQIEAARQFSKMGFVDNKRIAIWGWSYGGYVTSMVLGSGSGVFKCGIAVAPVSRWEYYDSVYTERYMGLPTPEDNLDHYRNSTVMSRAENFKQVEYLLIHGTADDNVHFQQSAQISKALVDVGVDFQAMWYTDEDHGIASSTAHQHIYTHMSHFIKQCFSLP

[8] = tested on: ICR mice; assay: Acute toxicity test of ICR mice; type: in vivo; conditions: 300 mg/kg administration group
[9] = molecular target: T2, DPP IV (Mus musculus, UniProt P28843); assay: Inhibition of DPP IV activity in normal mouse plasma; type: in vivo
T2 construct: from tissue; host or cells: normal mouse plasma
T2 sequence (P28843 37-760 limits assumed): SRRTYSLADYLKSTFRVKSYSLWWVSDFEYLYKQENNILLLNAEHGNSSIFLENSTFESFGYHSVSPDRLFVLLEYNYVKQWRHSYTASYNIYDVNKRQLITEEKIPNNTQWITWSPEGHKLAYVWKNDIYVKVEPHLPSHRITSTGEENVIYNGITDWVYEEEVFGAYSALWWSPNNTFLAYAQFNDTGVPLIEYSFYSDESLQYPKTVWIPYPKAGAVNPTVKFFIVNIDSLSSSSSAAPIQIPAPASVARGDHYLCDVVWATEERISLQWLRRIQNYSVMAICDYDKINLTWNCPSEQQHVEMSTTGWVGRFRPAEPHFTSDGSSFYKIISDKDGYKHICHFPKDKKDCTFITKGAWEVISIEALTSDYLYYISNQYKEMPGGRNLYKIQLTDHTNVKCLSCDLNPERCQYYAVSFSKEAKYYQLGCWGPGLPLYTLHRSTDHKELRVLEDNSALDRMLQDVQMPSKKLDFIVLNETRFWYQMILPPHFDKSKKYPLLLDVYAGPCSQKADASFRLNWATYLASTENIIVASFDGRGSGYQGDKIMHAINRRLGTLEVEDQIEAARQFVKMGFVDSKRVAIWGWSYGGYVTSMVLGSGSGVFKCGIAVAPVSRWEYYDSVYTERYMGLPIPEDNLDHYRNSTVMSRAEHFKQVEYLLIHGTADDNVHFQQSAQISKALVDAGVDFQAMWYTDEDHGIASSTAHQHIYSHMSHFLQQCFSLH

[10] = Hygroscopicity analysis (DVS); type: physicochemical; conditions: range of conventional storage humidity, 25° C.
Experimental: Dynamic vapor absorption (DVS) test/water absorption test rapidly measures the increase and loss of the moisture in the sample caused by flow carrier gas with set relative humidity (RH), wherein the sample is placed on a digital microbalance with high sensitivity and high stability at a self-suspension state, and then the adsorption/desorption of water vapor is measured by measuring the increase/decrease of mass of the material, thereby determining the hygroscopicity of the sample.
In the present invention, the test parameters of the DVS are as follows: Instrument type: SMS DVS Intrinsic; Non-hydrate: 0 to 95%-0% RH; Temperature: 25° C.; Hydrate: 40 to 95%-0% RH; Temperature: 25° C.

[11] = versus sitagliptin and vildagliptin

T1 sequence (P14740 37-767 limits assumed): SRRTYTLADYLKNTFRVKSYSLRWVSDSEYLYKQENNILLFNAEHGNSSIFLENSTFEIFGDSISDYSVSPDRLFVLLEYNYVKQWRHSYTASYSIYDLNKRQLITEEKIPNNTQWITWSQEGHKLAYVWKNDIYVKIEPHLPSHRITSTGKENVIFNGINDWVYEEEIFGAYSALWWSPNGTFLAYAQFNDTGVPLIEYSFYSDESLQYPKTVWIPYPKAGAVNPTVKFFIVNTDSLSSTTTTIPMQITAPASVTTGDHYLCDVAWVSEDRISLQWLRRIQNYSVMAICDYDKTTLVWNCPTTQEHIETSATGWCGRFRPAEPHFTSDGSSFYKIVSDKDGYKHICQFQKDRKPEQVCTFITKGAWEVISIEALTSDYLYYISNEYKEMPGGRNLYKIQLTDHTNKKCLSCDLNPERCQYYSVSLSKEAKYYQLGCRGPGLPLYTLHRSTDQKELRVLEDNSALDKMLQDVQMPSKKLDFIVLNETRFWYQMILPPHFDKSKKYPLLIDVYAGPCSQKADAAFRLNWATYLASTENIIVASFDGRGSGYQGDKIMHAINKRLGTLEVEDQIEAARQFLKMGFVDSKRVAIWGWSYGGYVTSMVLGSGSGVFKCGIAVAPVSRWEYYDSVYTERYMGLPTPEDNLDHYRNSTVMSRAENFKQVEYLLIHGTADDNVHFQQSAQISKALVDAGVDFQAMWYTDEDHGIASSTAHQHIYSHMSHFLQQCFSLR

Compound: COC(=O)c1cc2nc(N3CCC[C@@H](N)C3)n(Cc3ccccc3C#N)c(=O)c2s1 [compound of formula I, (R)-methyl-2-(3-aminopiperidin-1-yl)-3-(2-cyanobenzyl)-4-carbonyl-3,4-dihydrothiophene[3,2-d]pyrimidine-6-carboxylic acid]
- inhibition of DPP IV activity in plasma [1]: effective in inhibiting DPP IV activity
- plasma DPP IV inhibitory activity compared with alogliptin [1]: superior to the marketed drug alogliptin
- effect on oral glucose tolerance compared with alogliptin [2]: superior to that of alogliptin
- onset dose for increase of oral glucose tolerance [2]: 0.1 mg/kg
- oral glucose tolerance ([2]; dose-dependent manner): increase oral glucose tolerance
- fasting blood glucose [3]: reduce its fasting blood glucose
- fasting blood glucose reduction compared with alogliptin [3]: comparable to positive control drug alogliptin
- AUC0-t compared with alogliptin [4]: superior to those of the marketed drug alogliptin
- half-life compared with alogliptin [4]: superior to those of the marketed drug alogliptin
- fasting blood glucose [5]: effectively reduce fasting blood glucose
- fasting blood glucose reduction compared with alogliptin [5]: superior to positive control drug alogliptin
- AUC0-t compared with alogliptin [6]: superior to those of the marketed drug alogliptin
- half-life compared with alogliptin [6]: superior to those of the marketed drug alogliptin
- mode of DPP IV inhibition [7]: selective, reversible competitive inhibitor
- DPP IV inhibitory activity ([7]; in vitro): nanomolar level
- DPP IV inhibitory activity in vitro compared with marketed drugs [7, 11]: superior to the marketed drugs sitagliptin and vildagliptin
- DPP IV selectivity in vitro compared with marketed drugs [7, 11]: superior to the marketed drugs sitagliptin and vildagliptin
- animal death in acute toxicity test [8]: no animal dies
- inhibition of DPP IV activity in plasma [9]: effective in inhibiting DPP IV activity
- plasma DPP IV inhibitory activity compared with alogliptin [9]: superior to the marketed drug alogliptin

Compound: COC(=O)c1cc2nc(N3CCC[C@@H](N)C3)n(Cc3ccccc3C#N)c(=O)c2s1.O=C(O)/C=C\C(=O)O [crystal form A, (R)-methyl-2-(3-aminopiperidin-1-yl)-3-(2-cyanobenzyl)-4-carbonyl-3,4-dihydrothiophene[3,2-d]pyrimidine-6-carboxylic acid maleate]
- hygroscopicity, variation range (DVS) [10]: less than 2.0%
